Consider 21 molecules from ChEMBL document CHEMBL6134815, “Research progress of LpxC inhibitor on Gram-negative bacteria” (Eur J Med Chem, 2025).

Converted amounts (≈) assume the structure as drawn.

For one data set, the system named is Salmonella typhimurium. The experiment in a line: Antimicrobial activity against Salmonella enterica subsp. enterica serovar Typhimurium ATCC 14028 assessed as inhibition of bacterial growth measured for 24 hrs by standard broth microdilution method. The data set is classed as functional. On the technique in general: In broth dilution the organism is exposed to a series of concentrations in liquid medium.

The subject of data set [1] is Pseudomonas aeruginosa. As to the kind of experiment: Antibacterial activity against Pseudomonas aeruginosa ATCC 27853 assessed as reduction in bacterial growth incubated for 18 hrs by broth micro-dilution method. The data set is classed as functional.
Data set [2] concerns Escherichia coli. As to the kind of experiment: Antibacterial activity against Escherichia coli ATCC 25922 incubated for 24 hrs by CLSI based micro-dilution method. The data set is classed as functional.
The next data set has as its system Morganella morganii. As to the kind of experiment: Antimicrobial activity against Morganella morganii ATCC 25830 assessed as inhibition of microbial growth incubated for 18 hrs by micro-broth dilution method. The data set is classed as functional.
For data set [3], the target named is T1, UDP-3-O-acyl-N-acetylglucosamine deacetylase (Escherichia coli K-12, UniProt P0A725).
T1 sequence (P0A725 whole entry): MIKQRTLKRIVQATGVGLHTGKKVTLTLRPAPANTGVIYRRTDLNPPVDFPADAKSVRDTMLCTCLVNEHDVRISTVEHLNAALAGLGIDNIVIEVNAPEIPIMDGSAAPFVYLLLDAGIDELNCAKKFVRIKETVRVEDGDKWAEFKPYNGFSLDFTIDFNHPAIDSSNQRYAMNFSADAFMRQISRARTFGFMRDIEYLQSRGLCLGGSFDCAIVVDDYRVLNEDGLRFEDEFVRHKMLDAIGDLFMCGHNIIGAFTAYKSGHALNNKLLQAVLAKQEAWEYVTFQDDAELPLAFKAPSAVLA
The experiment in a line: Inhibition of Escherichia coli LpxC.

Another data set relates to Serratia marcescens. As to the kind of experiment: Antibacterial activity against Serratia marcescens assessed as inhibition of bacterial growth by Muller-Hinton broth based serial dilution method. Type of data set: functional.
The test system of the next data set is Haemophilus influenzae. As to the kind of experiment: Antibacterial activity against Haemophilus influenzae ATCC 49247 assessed as inhibition of microbial growth incubated for 18 hrs by micro-broth dilution method. Type of data set: functional.
Data set [4] concerns the target T1, UDP-3-O-acyl-N-acetylglucosamine deacetylase. As to the kind of experiment: Binding affinity to Escherichia coli LpxC assessed as inhibition constant.
Data set [5] has as its system Escherichia coli. The experiment in a line: Antibacterial activity against Escherichia coli ATCC 25922 assessed as reduction in bacterial growth incubated for 18 hrs by broth micro-dilution method. The data set is classed as functional.
Data set [6] relates to Escherichia coli. The experiment in a line: Antibacterial activity against Escherichia coli ATCC 25922 assessed as reduction in bacterial growth by CLSI protocol based Mueller Hinton broth assay. The data set is classed as functional.
Data set [7] deals with Pseudomonas aeruginosa. As to the kind of experiment: Antibacterial activity against Pseudomonas aeruginosa ATCC 27853 assessed as reduction in bacterial growth by CLSI protocol based Mueller Hinton broth assay. The data set is classed as functional.
Data set [8] relates to Klebsiella pneumoniae. As to the kind of experiment: Antibacterial activity against Klebsiella pneumoniae A651 assessed as reduction in bacterial growth by CLSI protocol based Mueller Hinton broth assay. Type of data set: functional.
The test system of data set [9] is Pseudomonas aeruginosa. As to the kind of experiment: Antibacterial activity against Pseudomonas aeruginosa CMCC 10104 assessed as reduction in bacterial growth incubated for 22 hrs byMueller-Hinton Broth assay. Type of data set: functional.
Data set [10] has as its system Escherichia coli. As to the kind of experiment: Antibacterial activity against Escherichia coli CMCC 44568 assessed as reduction in bacterial growth incubated for 22 hrs byMueller-Hinton Broth assay. Type of data set: functional.
Data set [11] can be described thus: Inhibition of Aquifex aeolicus LpxC.
The subject of data set [12] is Pseudomonas aeruginosa. The experiment in a line: Antibacterial activity against Pseudomonas aeruginosa PAO1 assessed as reduction in bacterial growth incubated for 24 hrs By CLSI based micro-dilution method. Type of data set: functional.
For data set [13], the system named is Klebsiella pneumoniae. As to the kind of experiment: Antibacterial activity against Klebsiella pneumoniae ATCC 700603. The data set is classed as functional.
Data set [14] has as its system Escherichia coli. The experiment in a line: Antibacterial activity against Escherichia coli ATCC 25922. Type of data set: functional.
Data set [15] has as its system Pseudomonas aeruginosa. The experiment in a line: Antibacterial activity against Pseudomonas aeruginosa PAO1. The data set is classed as functional.
Data set [16] has as its system Escherichia coli. The experiment in a line: Antimicrobial activity against Escherichia coli ATCC 25922 assessed as reduction in bacterial growth incubated for 18 hrs by micro-dilution method. Type of data set: functional.
Data set [17] relates to Klebsiella pneumoniae. The experiment in a line: Antibacterial activity against Klebsiella pneumoniae ATCC 700603 assessed as inhibition of bacterial growth incubated for 18 hrs by broth micro-dilution method. Type of data set: functional.
Data set [18] addresses T2, UDP-3-O-acyl-N-acetylglucosamine deacetylase (Pseudomonas aeruginosa (strain ATCC 15692 / PAO1 / 1C / PRS 101 / LMG12228), UniProt P47205).
T2 sequence (P47205 whole entry): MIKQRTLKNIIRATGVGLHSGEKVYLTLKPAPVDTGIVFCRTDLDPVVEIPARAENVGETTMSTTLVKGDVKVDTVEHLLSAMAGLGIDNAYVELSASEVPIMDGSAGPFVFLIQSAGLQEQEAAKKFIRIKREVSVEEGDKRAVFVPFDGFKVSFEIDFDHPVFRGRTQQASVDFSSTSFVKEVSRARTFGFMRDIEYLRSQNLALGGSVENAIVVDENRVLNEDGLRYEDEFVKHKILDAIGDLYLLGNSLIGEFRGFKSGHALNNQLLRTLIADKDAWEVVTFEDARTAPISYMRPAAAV
The experiment in a line: Binding affinity to Pseudomonas aeruginosa LpxC assessed as inhibition constant.

Data set [19] can be described thus: Toxicity in CD-1 mouse assessed as effective dose. As to conditions: in vivo.
The target of data set [20] is T2, UDP-3-O-acyl-N-acetylglucosamine deacetylase. As to the kind of experiment: Inhibition of Pseudomonas aeruginosa LpxC.
For data set [21], the system named is Escherichia coli. As to the kind of experiment: Anti-microbial activity against Escherichia coli ATCC 25922 assessed as reduction in bacterial growth incubated for 24 hrs By CLSI based micro-dilution method. The data set is classed as functional.
Data set [22] has as its system Pseudomonas aeruginosa. As to the kind of experiment: Antibacterial activity against Pseudomonas aeruginosa assessed as bacterial growth inhibition. Type of data set: functional.
Data set [23] concerns Escherichia coli. The experiment in a line: Antibacterial activity against Escherichia coli assessed as bacterial growth inhibition. Type of data set: functional.
Data set [24] deals with Escherichia coli. As to the kind of experiment: Antibacterial activity against Escherichia coli ATCC 25922 assessed as reduction in bacterial growth. Type of data set: functional.
The subject of data set [25] is Pseudomonas aeruginosa. The experiment in a line: Antibacterial activity against Pseudomonas aeruginosa assessed as reduction in bacterial growth. The data set is classed as functional.
The test system of data set [26] is Pseudomonas aeruginosa. The experiment in a line: Antibacterial activity against Pseudomonas aeruginosa ATCC 27853 assessed as reduction in bacterial growth by CLSI protocol based Muller Hinton broth assay. The data set is classed as functional.
In data set [27] the test system is Klebsiella pneumoniae. As to the kind of experiment: Antibacterial activity against Klebsiella pneumoniae ATCC 43816 assessed as reduction in microbial growth incubated for 16 to 18 hrs by CLSI protocol based Muller Hinton broth assay. Type of data set: functional. As to conditions: time 16-18 hrs.
The subject of another data set is Yersinia enterocolitica. As to the kind of experiment: Antibacterial activity against Yersinia enterocolitica assessed as inhibition of bacterial growth incubated for 16 to 20 hrs by CLSI protocol based Muller Hinton broth assay. The data set is classed as functional. Particulars: time 16-20 hrs.

Take `C[C@@H](O)[C@H](NC(=O)c1ccc(C#CC#Cc2ccccc2)cc1)C(=O)NO`: the MIC in the data set with Salmonella typhimurium is 0.024 µg/mL (≈ 0.0662 µM); in the data set on Pseudomonas aeruginosa [1], 0.74 µg/mL (≈ 2.04 µM); with Escherichia coli [2], 0.05 µg/mL (≈ 0.138 µM).
`O=C(NO)[C@@H](Cc1ccc2ccccc2c1)NS(=O)(=O)c1ccc2ccccc2c1`: the MIC with Morganella morganii was 1 µg/mL; with Serratia marcescens, 1 µg/mL (≈ 2.38 µM); with Haemophilus influenzae, 1 µg/mL. Moreover, 160 nM corresponded to half-maximal inhibition in data set [3] (IC50).
For `O=C(NO)[C@H]1O[C@@H](c2ccc(C#CC#Cc3ccccc3)cc2)[C@@H](O)[C@H]1O`, in data set [4], the Ki – broadly, the equilibrium dissociation constant of an inhibitor or competing ligand from its target – was found to be 4400 nM.
Regarding `CCCc1cc(C2=NC(C(=O)NO)CO2)ccc1OC` (stereo not drawn), the MIC in the data set with Escherichia coli [5] was determined as 1 µg/mL (≈ 3.59 µM).
Regarding `C[C@@](CCN1Cc2cc(C#Cc3ccc([C@H]4C[C@@H]4CO)cc3)cn2C1=O)(C(=O)NO)S(C)(=O)=O`, the MIC in the data set on Escherichia coli [6] turned out to be 0.031 µg/mL (≈ 0.0638 µM); in the data set on Pseudomonas aeruginosa [7] it was 0.5 µg/mL (≈ 1.03 µM); with Klebsiella pneumoniae [8], 0.125 µg/mL (≈ 0.257 µM).
As for `N=C(N)N/N=C/c1ccc(C#CC#Cc2ccccc2Cl)cc1`, the MIC in the data set with Pseudomonas aeruginosa [9] is 4 µg/mL (≈ 12.5 µM); in the data set with Escherichia coli [10], 8 µg/mL (≈ 24.9 µM).
With `CCCCCC(=O)O[C@@H]1[C@@H](CP(C)(=O)O)CO[C@H](CO)[C@H]1O`, the IC50 (in general, the point on the concentration scale where inhibition reaches its midpoint) in data set [3] turned out to be 115000 nM; in [11] it was 192000 nM.
`CC(O)C#CC#Cc1ccc(C2=NO[C@@H](C[C@](C)(C(=O)NO)S(C)(=O)=O)C2)cc1` (stereo partly drawn): the MIC in the data set on Pseudomonas aeruginosa [12] was 0.06 µg/mL (≈ 0.143 µM).
In data set [3], `CNC(=O)c1ccc(-c2ccc(NCc3oc(S(C)(=O)=O)cc(=O)c3O)cc2)cc1` gave an IC50 of 100 nM.
As to `COC[C@@H]1C[C@H]1C#CC#Cc1ccc(C(=O)N[C@H](C(=O)NO)C(C)(C)N)cc1`, the MIC was found to be 0.5 µg/mL (≈ 1.3 µM) against Klebsiella pneumoniae [13], 0.12 µg/mL (≈ 0.313 µM) against Escherichia coli [14] and 0.5 µg/mL (≈ 1.3 µM) against Pseudomonas aeruginosa [15].
For the molecule `C[C@@](O)(C(F)F)[C@H](NC(=O)c1ccc(C#CC#CC2CC2)cc1)C(=O)NO`, the MIC90 (commonly an inhibitory concentration at the 90% level, which refers to growth in some studies and to a panel of isolates in others) in the data set on Escherichia coli [16] came to 0.5 µg/mL (≈ 1.33 µM); with Klebsiella pneumoniae [17], 0.125 µg/mL (≈ 0.332 µM). In data set [18], the Ki is 0.0089 nM. In data set [19], the ED50 (in general, the dose at which the effect has come halfway, by size or by number of responders) is on record as 7.2 mg/kg/day.
With `O=C(CO/N=C/c1ccc(O)c(O)c1O)NC[C@H]1O[C@@H](n2ccc(=O)[nH]c2=O)[C@@H](O)[C@H]1O`, the midpoint of inhibition in data set [3], the IC50, lay at 27000 nM. That is a double-digit micromolar value.
With `O=C(NO)C1(NCc2ccc(-c3ccc(Cl)cc3F)c(F)c2)CCS(=O)(=O)CC1`, in the data set on Pseudomonas aeruginosa [12], the MIC came to 0.25 µg/mL (≈ 0.562 µM). Also, the IC50 in data set [20] worked out at 0.2 nM.
On to `O=C(NO)[C@@H](Cc1ccc2ccccc2c1)NS(=O)(=O)c1ccc2cc(Br)ccc2c1`, for which the MIC in the data set on Morganella morganii turned out to be 1 µg/mL; in the data set with Serratia marcescens, 1 µg/mL (≈ 2 µM); in the data set on Haemophilus influenzae it was 1 µg/mL. For the same molecule, the IC50 in [3] stood at 400 nM.
For the molecule `O=C(NO)[C@H]1O[C@@H](c2ccc(C#Cc3ccc(CN4CCOCC4)cc3)cc2)C[C@H]1O`, the Ki in [4] was 3500 nM. Moreover, the MIC in the data set on Escherichia coli [21] stood at 2 µg/mL (≈ 4.73 µM).
As to `CC(O)C(CP(=O)(O)O)NC(=O)c1ccc(C#Cc2ccc(CN3CCOCC3)cc2)cc1` (stereo not drawn), the MIC in the data set on Pseudomonas aeruginosa [22] is 2.06 µg/mL (≈ 4.36 µM); with Escherichia coli [23], 0.28 µg/mL (≈ 0.593 µM).
With `O=C(NO)[C@@H](OCc1ccc(C#Cc2ccc(CN3CCOCC3)cc2)cc1)[C@@H](O)COCc1ccccc1`, the MIC in the data set on Escherichia coli [21] was 0.125 µg/mL (≈ 0.236 µM).
On to `N=C(N)N/N=C/c1ccc(C#CC#Cc2ccc(Cl)cc2)cc1`, for which the MIC in the data set with Pseudomonas aeruginosa [9] is 1 µg/mL (≈ 3.12 µM); in the data set on Escherichia coli [10], 2 µg/mL (≈ 6.23 µM).
As for `C[C@]1(CO)C[C@@H]1C#CC#Cc1ccc2c(=O)n(CC[C@](C)(C(=O)NO)S(C)(=O)=O)cnc2c1`, the MIC in the data set with Escherichia coli [6] was determined as 0.063 µg/mL (≈ 0.134 µM); in the data set on Pseudomonas aeruginosa [7], 1 µg/mL (≈ 2.12 µM); with Klebsiella pneumoniae [8], 0.25 µg/mL (≈ 0.53 µM).
Take `CS(=O)(=O)c1cc(=O)c(O)c(CNc2ccc(-c3ccc(N4CCOCC4)cc3)cc2)o1`: the IC50 in [3] worked out at 100 nM.
In the case of `CC(C)(N)[C@H](NC(=O)c1ccc(C#CC#C[C@@H]2C[C@H]2CO)cc1)C(=O)NO` [ACHN-975], the MIC is 0.125 µg/mL (≈ 0.338 µM) in the data set with Escherichia coli [24]; ≤ 1 µg/mL in the data set on Pseudomonas aeruginosa [25]; 0.25 µg/mL (≈ 0.677 µM) with Pseudomonas aeruginosa [26]; 0.5 µg/mL with Klebsiella pneumoniae [27]; 2 µg/mL (≈ 5.41 µM) with Yersinia enterocolitica.
